Source: patent US9440969B2, “Compounds and methods for kinase modulation, and indications therefor” (PLEXXIKON INC., priority 2009, dated 2016)

Columns and labels:
B-Raf V600E = B-Raf V600E (Homo sapiens, UniProt P15056, V600E); test: B-Raf V600E kinase activity assay (AlphaScreen, biotin-MEK1 substrate); settings: 100 μM ATP, 100 nM biotin-MEK1, 45 minutes at room temperature, read-out: Biochemical activity (IC50 μM) V600E
Outline: (§1)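 Each Raf enzyme (0.1 ng) phosphorylates 100 nM biotin-MEK1 in pH 7.0 HEPES with Mg2+/Mn2+, 100 μM ATP final, 45 min at room temperature. Phospho-MEK1/2 antibody with AlphaScreen beads is read after 3 h. IC50 comes from an 8-point dilution series.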

c-Raf-1 = c-Raf-1 (Homo sapiens, UniProt P04049); test: c-Raf-1 kinase activity assay (AlphaScreen, biotin-MEK1 substrate); settings: 100 μM ATP, 100 nM biotin-MEK1, 45 minutes at room temperature; read-out: Biochemical activity (IC50 μM) c-Raf-1
Chain of c-Raf-1 (P04049 whole entry Y340D/Y341D, form open): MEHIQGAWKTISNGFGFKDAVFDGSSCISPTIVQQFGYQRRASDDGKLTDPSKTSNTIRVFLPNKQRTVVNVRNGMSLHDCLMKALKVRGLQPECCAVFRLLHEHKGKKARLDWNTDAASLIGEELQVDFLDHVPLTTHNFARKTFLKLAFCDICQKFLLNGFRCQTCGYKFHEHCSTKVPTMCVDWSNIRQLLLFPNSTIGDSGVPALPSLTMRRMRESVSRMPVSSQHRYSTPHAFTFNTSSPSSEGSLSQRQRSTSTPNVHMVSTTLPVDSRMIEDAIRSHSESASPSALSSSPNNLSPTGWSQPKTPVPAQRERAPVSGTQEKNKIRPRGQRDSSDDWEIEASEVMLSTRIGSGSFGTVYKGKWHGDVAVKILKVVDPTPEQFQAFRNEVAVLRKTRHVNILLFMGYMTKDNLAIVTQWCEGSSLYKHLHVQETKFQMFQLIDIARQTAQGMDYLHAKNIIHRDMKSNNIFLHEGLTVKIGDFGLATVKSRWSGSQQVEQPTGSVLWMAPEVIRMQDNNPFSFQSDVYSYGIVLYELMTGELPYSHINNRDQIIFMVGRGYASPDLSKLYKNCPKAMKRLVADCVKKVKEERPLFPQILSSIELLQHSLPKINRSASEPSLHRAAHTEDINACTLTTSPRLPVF
Outline: as §1

[1] = tested on: COLO205 colon adenocarcinoma (B-Raf V600E mutation); test: COLO205 cell growth inhibition (ATPlite luminescence); type: cell-based; settings: Homo sapiens, COLO 205, 72 h, COLO205 cells, incubated 3 days with compound
Method: Compounds are assessed in a variety of cell based assays. For example human cell lines with B-Raf V600E mutation (A375 melanoma, SKMEL3 melanoma, and COLO205 colon adenocarcinoma), as well as tumorigenic cell lines with wild-type B-RAF (SW620 colon adenocarcinoma) or with Ras mutations (SKMEL2 melanoma and IPC298 melanoma). Similar assays may be used to assess additional tumorigenic cell lines with Ras mutations, including, but not limited to, M202, M207, M243, M244, M296, S117, HCT116, HCT15, DLD1, MiaPaCa, A549, NCI-H23, NCI-H460, HOP62, MDA-MB231, Hs-578T, HL60, MOLT-4, and CCRF-CEM.
On day 1, cells are counted, then centrifuged in a conical tube for 5 minutes at 1000 rpm. The supernatant is removed and cells are re-suspended as follows: • SW620 (ATCC catalog #CCL-27): resuspend in Leibovitz's L-15 medium, 2 mM L-glutamine, 10% fetal bovine serum to 6×10^4 cells/mL. • A375 (ATCC catalog #CRL-1619): resuspend in Dulbecco's modified Eagle's medium, 4 mM L-glutamine, 4.5 g/L D-glucose, 10% fetal bovine serum to 6×10^4 cells/mL. • COLO205 (ATCC catalog #CCL-222): resuspend in RPMI 1640, 2 mM L-glutamine, 1.5 g/L sodium bicarbonate, 4.5 g/L D-glucose, 10 mM HEPES, 1.0 mM sodium pyruvate, 10% fetal bovine serum to 6×10^4 cells/mL. • SKMEL2 (ATCC catalog #HTB-68): resuspend in Minimum Eagle essential medium, 2 mM L-glutamine, 1.5 g/L sodium bicarbonate, 0.1 mM non-essential amino acids, 1.0 mM sodium pyruvate, 10% fetal bovine serum to 6×10^4 cells/mL. • SKMEL3 (ATCC catalog #HTB-69): resuspend in McCoy's 5A medium, 1.5 mM L-glutamine, 15% fetal bovine serum to 6×10^4 cells/mL. • IPC298 (DSMZ catalog #ACC 251): resuspend in RPMI 1640, 2 mM L-glutamine, 10% fetal bovine serum to 6×10^4 cells/mL.
The cells are plated, 50 μL in each well of a 96-well dish (Corning 3610) and incubated at 37° C. in 5% CO2 overnight, cells plated to a final concentration of cells as follows:
On day 2, compound at a maximum concentration of 5 mM is serially diluted 1:3 (e.g. 10 μL with 30 μL dimethyl sulfoxide) for a total of 8 point titration with DMSO as a control. A 1 μL aliquot of each dilution point and control is added to 249 μL growth media and 50 μL is added to a well containing cells, providing 10 μM compound at the maximum concentration point. The cells are incubated for 3 days at 37° C. in 5% CO2.
On day 5, ATPlite 1 step Luminescence Assay System (Perkin Elmer #6016739) is brought to room temperature along with the cell cultures. ATPlite is added 25 μL to each well, shake for 2 minutes, and the cells are incubated at room temperature for 10 minutes, then luminescence is read on Safire reader. The measured luminescence correlates directly with cell number, such that the reading as a function of compound concentration is used to determine the IC50 value.
It is understood that the results of these assays may vary as assay conditions are varied. Inhibition levels determined under the conditions described herein represent a relative activity for the compounds tested under the specific conditions employed. The cell based assays are likely to show variability due to the complexity of the system and the sensitivity thereof to any changes in the assay conditions. […] Results for compounds that are tested and show substantially no inhibition below the highest tested concentration are represented as “-” in the tables below. In some instances, the compounds were not tested in all of the assays, or assay results were not valid, as indicated by NA in the tables below.

B-Raf = B-Raf (Homo sapiens, UniProt P15056); test: B-Raf kinase activity assay (AlphaScreen, biotin-MEK1 substrate); settings: 100 μM ATP, 100 nM biotin-MEK1, 45 minutes at room temperature; read-out: Biochemical activity (IC50 μM) B-Raf
Chain of B-Raf (P15056 whole entry): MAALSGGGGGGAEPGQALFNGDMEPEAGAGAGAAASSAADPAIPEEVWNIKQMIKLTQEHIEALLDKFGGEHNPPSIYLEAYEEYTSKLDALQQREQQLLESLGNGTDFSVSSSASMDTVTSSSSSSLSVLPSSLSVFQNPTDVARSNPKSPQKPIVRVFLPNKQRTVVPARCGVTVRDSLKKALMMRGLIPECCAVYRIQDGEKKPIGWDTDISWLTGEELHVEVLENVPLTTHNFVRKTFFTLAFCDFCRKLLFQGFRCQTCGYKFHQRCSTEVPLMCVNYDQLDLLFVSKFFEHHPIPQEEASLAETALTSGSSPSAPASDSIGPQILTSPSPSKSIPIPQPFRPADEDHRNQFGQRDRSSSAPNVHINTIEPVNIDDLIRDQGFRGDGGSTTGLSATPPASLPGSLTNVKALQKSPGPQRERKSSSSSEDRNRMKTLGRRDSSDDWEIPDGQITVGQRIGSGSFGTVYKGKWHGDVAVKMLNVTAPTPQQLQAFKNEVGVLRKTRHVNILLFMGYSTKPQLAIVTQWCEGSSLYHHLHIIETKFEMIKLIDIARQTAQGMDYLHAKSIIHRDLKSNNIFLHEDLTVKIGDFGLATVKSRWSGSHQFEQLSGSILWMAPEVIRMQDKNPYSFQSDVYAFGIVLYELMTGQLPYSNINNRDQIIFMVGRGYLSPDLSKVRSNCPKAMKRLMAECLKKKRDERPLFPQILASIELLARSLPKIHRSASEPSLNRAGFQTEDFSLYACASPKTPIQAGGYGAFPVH
Outline: as §1

Chain of B-Raf V600E (P15056 whole entry V600E): as the sequence (P15056 whole entry) above, with V600E counted along it

CCCS(=O)(=O)Nc1ccc(F)c(C(=O)c2c[nH]c3ncc(-c4csc(-n5cnc(C)c5)n4)cc23)c1F [P-1100, Propane-1-sulfonic acid (2,4-difluoro-3-{5-[2-(4-methyl-imidazol-1-yl)-thiazol-4-yl]-1H-pyrrolo[2,3-b]pyridine-3-carbonyl}-phenyl)-amide]
IC50 (B-Raf V600E): < 0.1 µM | IC50 (c-Raf-1): < 0.1 µM | IC50 [1]: < 1 µM | IC50 (B-Raf): < 0.1 µM

CCCS(=O)(=O)Nc1ccc(F)c(C(=O)c2c[nH]c3ncc(-c4csc(N(C)C)n4)cc23)c1F [P-1102, Propane-1-sulfonic acid {3-[5-(2-dimethylamino-thiazol-4-yl)-1H-pyrrolo[2,3-b]pyridine-3-carbonyl]-2,4-difluoro-phenyl}-amide]
IC50 (B-Raf V600E): < 0.1 µM | IC50 (c-Raf-1): < 0.1 µM | IC50 [1]: > 1 µM | IC50 (B-Raf): < 0.1 µM

CCCS(=O)(=O)Nc1ccc(F)c(C(=O)c2c[nH]c3ncc(-c4csc(-n5cccn5)n4)cc23)c1F [P-1103, Propane-1-sulfonic acid {2,4-difluoro-3-[5-(2-pyrazol-1-yl-thiazol-4-yl)-1H-pyrrolo[2,3-b]pyridine-3-carbonyl]-phenyl}-amide]
IC50 (B-Raf V600E): < 0.1 µM | IC50 (c-Raf-1): < 0.1 µM | IC50 [1]: > 1 µM | IC50 (B-Raf): < 0.1 µM

CCCS(=O)(=O)Nc1ccc(F)c(C(=O)c2c[nH]c3ncc(-c4cnc(-n5ccnc5)s4)cc23)c1F [P-1104, Propane-1-sulfonic acid {2,4-difluoro-3-[5-(2-imidazol-1-yl-thiazol-5-yl)-1H-pyrrolo[2,3-b]pyridine-3-carbonyl]-phenyl}-amide]
IC50 (B-Raf V600E): < 0.1 µM | IC50 (c-Raf-1): < 0.1 µM | IC50 [1]: < 1 µM | IC50 (B-Raf): < 0.1 µM

CCCS(=O)(=O)Nc1ccc(F)c(C(=O)c2c[nH]c3ncc(-c4cnc(-n5ccnc5C)s4)cc23)c1F [P-1105, Propane-1-sulfonic acid (2,4-difluoro-3-{5-[2-(2-methyl-imidazol-1-yl)-thiazol-5-yl]-1H-pyrrolo[2,3-b]pyridine-3-carbonyl}-phenyl)-amide]
IC50 (B-Raf V600E): < 0.1 µM | IC50 (c-Raf-1): < 0.1 µM | IC50 [1]: < 1 µM | IC50 (B-Raf): < 0.1 µM

CCCS(=O)(=O)Nc1ccc(F)c(C(=O)c2c[nH]c3ncc(-c4csc(-n5ccnc5)n4)cc23)c1F [P-1106, Propane-1-sulfonic acid {2,4-difluoro-3-[5-(2-imidazol-1-yl-thiazol-4-yl)-1H-pyrrolo[2,3-b]pyridine-3-carbonyl]-phenyl}-amide]
IC50 (B-Raf V600E): < 0.1 µM | IC50 (c-Raf-1): < 0.1 µM | IC50 [1]: > 1 µM | IC50 (B-Raf): < 0.1 µM

CCCS(=O)(=O)Nc1ccc(F)c(C(=O)c2c[nH]c3ncc(-c4ccc(-c5cccnc5)s4)cc23)c1F [P-1200, Propane-1-sulfonic acid {2,4-difluoro-3-[5-(5-pyridin-3-yl-thiophen-2-yl)-1H-pyrrolo[2,3-b]pyridine-3-carbonyl]-phenyl}-amide]
IC50 (B-Raf V600E): < 0.1 µM | IC50 (c-Raf-1): < 0.1 µM | IC50 [1]: > 1 µM | IC50 (B-Raf): < 0.1 µM

CCCS(=O)(=O)Nc1ccc(F)c(C(=O)c2c[nH]c3ncc(-c4ccc(-c5cc[nH]n5)s4)cc23)c1F [P-1201, Propane-1-sulfonic acid (2,4-difluoro-3-{5-[5-(1H-pyrazol-3-yl)-thiophen-2-yl]-1H-pyrrolo[2,3-b]pyridine-3-carbonyl}-phenyl)-amide]
IC50 (B-Raf V600E): < 0.1 µM | IC50 (c-Raf-1): < 0.1 µM | IC50 [1]: < 1 µM | IC50 (B-Raf): < 0.1 µM

CCCS(=O)(=O)Nc1ccc(F)c(C(=O)c2c[nH]c3ncc(-c4ccc(S(N)(=O)=O)s4)cc23)c1F [P-1202, 5-{3-[2,6-Difluoro-3-(propane-1-sulfonylamino)-benzoyl]-1H-pyrrolo[2,3-b]pyridin-5-yl}-thiophene-2-sulfonic acid amide]
IC50 (B-Raf V600E): < 0.1 µM | IC50 (c-Raf-1): < 0.1 µM | IC50 [1]: < 1 µM | IC50 (B-Raf): < 0.1 µM

CCCS(=O)(=O)Nc1ccc(F)c(C(=O)c2c[nH]c3ncc(-c4ccc(-c5noc(C)n5)s4)cc23)c1F [P-1203, Propane-1-sulfonic acid (2,4-difluoro-3-{5-[5-(5-methyl-[1,2,4]oxadiazol-3-yl)-thiophen-2-yl]-1H-pyrrolo[2,3-b]pyridine-3-carbonyl}-phenyl)-amide]
IC50 (B-Raf V600E): < 0.1 µM | IC50 (c-Raf-1): < 0.1 µM | IC50 [1]: > 1 µM | IC50 (B-Raf): < 0.1 µM

CCCS(=O)(=O)Nc1ccc(F)c(C(=O)c2c[nH]c3ncc(-c4ccccn4)cc23)c1F [P-1401, Propane-1-sulfonic acid [2,4-difluoro-3-(5-pyridin-2-yl-1H-pyrrolo[2,3-b]pyridine-3-carbonyl)-phenyl]-amide]
IC50 (B-Raf V600E): < 0.1 µM | IC50 (c-Raf-1): < 0.1 µM | IC50 [1]: > 1 µM | IC50 (B-Raf): < 0.1 µM

CCCS(=O)(=O)Nc1ccc(F)c(C(=O)c2c[nH]c3ncc(-c4cnc(-n5cccn5)cn4)cc23)c1F [P-1601, Propane-1-sulfonic acid {2,4-difluoro-3-[5-(5-pyrazol-1-yl-pyrazin-2-yl)-1H-pyrrolo[2,3-b]pyridine-3-carbonyl]-phenyl}-amide]
IC50 (B-Raf V600E): < 0.1 µM | IC50 (c-Raf-1): < 0.1 µM | IC50 [1]: < 1 µM | IC50 (B-Raf): < 0.1 µM

CCCS(=O)(=O)Nc1ccc(F)c(C(=O)c2c[nH]c3ncc(-c4cnc(-n5ccnc5)cn4)cc23)c1F [P-1602, Propane-1-sulfonic acid {2,4-difluoro-3-[5-(5-imidazol-1-yl-pyrazin-2-yl)-1H-pyrrolo[2,3-b]pyridine-3-carbonyl]-phenyl}-amide]
IC50 (B-Raf V600E): < 0.1 µM | IC50 (c-Raf-1): < 0.1 µM | IC50 [1]: < 1 µM | IC50 (B-Raf): < 0.1 µM

CCCS(=O)(=O)Nc1ccc(F)c(C(=O)c2c[nH]c3ncc(-c4cnc(N)cn4)cc23)c1F [P-1603, Propane-1-sulfonic acid {3-[5-(5-amino-pyrazin-2-yl)-1H-pyrrolo[2,3-b]pyridine-3-carbonyl]-2,4-difluoro-phenyl}-amide]
IC50 (B-Raf V600E): < 0.1 µM | IC50 (c-Raf-1): < 0.1 µM | IC50 [1]: < 1 µM | IC50 (B-Raf): < 0.1 µM

CCCS(=O)(=O)Nc1ccc(F)c(C(=O)c2c[nH]c3ncc(-c4ccc(Cl)c(C(N)=O)c4)cc23)c1F [P-1700, 2-Chloro-5-{3-[2,6-difluoro-3-(propane-1-sulfonylamino)-benzoyl]-1H-pyrrolo[2,3-b]pyridin-5-yl}-benzamide]
IC50 (B-Raf V600E): < 0.1 µM | IC50 (c-Raf-1): < 0.1 µM | IC50 [1]: < 1 µM | IC50 (B-Raf): < 0.1 µM

CCCS(=O)(=O)Nc1ccc(F)c(C(=O)c2c[nH]c3ncc(-c4ccc5c(c4)CNC5=O)cc23)c1F [P-1701, Propane-1-sulfonic acid {2,4-difluoro-3-[5-(1-oxo-2,3-dihydro-1H-isoindol-5-yl)-1H-pyrrolo[2,3-b]pyridine-3-carbonyl]-phenyl}-amide]
IC50 (B-Raf V600E): < 0.1 µM | IC50 (c-Raf-1): < 0.1 µM | IC50 [1]: < 1 µM | IC50 (B-Raf): < 0.1 µM
